Source: US20100324017A1, “ACYLGUANIDINE DERIVATIVE” (priority 2007, published 2010)
Counter-ions that a name gives are not always drawn.

What was measured:
human 5-HT5A receptor = biological target: T1, human 5-HT5A receptor (Homo sapiens, UniProt P47898); test: Test of human 5-HT5A receptor binding inhibition ([3H]5-CT, HEK293 cell membrane); conditions: [3H]5-CT binding, membrane of HEK293 cell expressing human 5-HT5A receptor
T1 construct: expressed in transfected cells; membrane preparation
T1 sequence (P47898 whole entry): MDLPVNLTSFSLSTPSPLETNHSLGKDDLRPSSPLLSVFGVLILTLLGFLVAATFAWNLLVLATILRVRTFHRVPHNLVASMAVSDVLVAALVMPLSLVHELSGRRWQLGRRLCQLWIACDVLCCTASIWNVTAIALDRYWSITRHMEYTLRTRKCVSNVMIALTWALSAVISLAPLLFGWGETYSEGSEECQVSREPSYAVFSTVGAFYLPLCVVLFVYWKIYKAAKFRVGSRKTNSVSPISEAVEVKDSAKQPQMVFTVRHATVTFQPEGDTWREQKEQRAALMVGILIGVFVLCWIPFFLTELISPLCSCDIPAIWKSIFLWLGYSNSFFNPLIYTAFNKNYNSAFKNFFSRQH
Description: An ORF of a human 5-HT5A receptor (Genbank AF498985) was cloned from a human hippocampal cDNA library, and then inserted into a pCR2.1 vector (Invitrogen), and Escherichia coli having the plasmid was mass cultured. Next, the human 5-HT5A receptor full-length cDNA sequence was analyzed, recombined into a pCDNA3.1 vector (Invitrogen) as an expression vector, and mass cultured. A human embryonic kidney-induced cell HEK293 cell (ATCC) was seeded, and the resulting expression plasmid (1 μg) above was added thereto together with LIPOFECTAMINE 2000 (Invitrogen; 2 μl), a gene was introduced into the HEK293 cell, and then Geneticin (G418 sulfate 500 μg/ml; Kanto Chemical Co., Inc.) was used as a drug-resistant marker to screen the expressing cell. Thus prepared gene-expressing recombinant cell was cultured in a D-MEM, 10% FCS, 1% Pc./Sm., 500 μg/ml G418 culture medium for 3 days. This experimental operation was conducted in accordance with a gene operation experiment manual of a known method (Sambrook, J. et al, Molecular Cloning-A Laboratory Manual“, Cold Spring Harabor Laboratory, NY, 1989), etc., an instruction appended in a reagent or the like.
(1) Preparation of a Membrane from an HEK293 Cell Forcibly Expressing a Human 5-HT5A Receptor
An HEK293 cell forcibly expressing a human 5-HT5A receptor was cultured in an F500 plate, and scraped for collection using a scraper. After centrifugation, the precipitates were collected and an incubation buffer (50 mM Tris (HCl) PH 7.4, 10 mM Mg504, 0.5 mM EDTA) was added thereto. After homogenization, it was further centrifuged, an incubation buffer was added to the precipitate, and the mixture was well suspended. These operations were repeatedly conducted, the protein concentration was then measured, and the preparation of a membrane was completed.
(2) Experiment on Human 5-HT5A Receptor Binding Inhibition
The compound to be tested (0.3 to 300 nM) and a 100 μM 5-CT solution in DMSO were added to a 96-well plate at 2 μl/well. The number of the wells to be measured under the same condition in one experiment was set at 2, and an average value thereof was used. It was suspended in an incubation buffer, and a HEK293 cell membrane forcibly expressing a human 5-HT5A receptor that had been prepared at 200 μg/ml was added thereto at 100 μl/well. The mixture was incubated at room temperature for 15 minutes, and a [^3H]5-CT solution (2 nM [^3H]5-CT, an incubation buffer) was then added thereto at 100 μl/well.
Separate from this, 100 μl of the solution was dispersed to a liquid scintillation vial, 2 ml of Aquasol II (registered trademark) was added thereto, followed by stirring, and the radioactivity was then measured with a liquid scintillation counter. The solution was incubated at 37° C. for 60 minutes. The reaction liquid was sucked to a 96-well GF/C filter plate that had been preliminarily treated with 0.2% polyethyleneimine, and washed six times with an ice-cooled 50 mM Tris (pH 7.5) buffer. The GF/C filter plate was dried.
MicroscintTMPS (registered trademark) was added thereto at 40 μl/well. The radioactivity remaining on the GF/C filter plate was measured in a top counter.
For the inhibitory activity for the binding of the [^3H]5-CT by the compound to be tested in each experiment, IC50 value was calculated by taking the radioactivity when only DMSO was added as 0% inhibition, and the radioactivity when 1 μM 5-CT was added as 100% inhibition. Apart from this, a Ki value was calculated from the Kd value of the [^3H]5-CT that had been determined by Scatchard analysis.
Ki=IC50 (1+Concentration of the ligands added/Kd (4.95 nM))

[1] = test system: MK-801-induced overactivity; test: MK-801-induced overactivity in mice, kinetic momentum by infrared sensor; type: in vivo; conditions: mouse, oral, MK-801 0.3 mg/kg i.p.
Description: Evaluation of Various Drugs Relative to a Drug for Increasing the Kinetic Momentum of Mice (Methane Phetamine, MK-801) (Method for Measuring a Kinetic Momentum by Discharge of an Infrared Ray)
The effect of improving the positive symptoms and the negative symptoms of schizophrenia by the compound (I) was evaluated by measuring the kinetic momentum that had been […] with administration of the compound in a model causing the symptoms by methane phetamine (which is hereinafter simply referred to as MAP) and MK-801.
Species: Male ICR mouse/number of animals (number of animals per group): 8 to 12 animals per group
The animal was left in a laboratory for 1 hour or longer to be acclimated to the environment, and the animal was taken from the feeding cage, orally administered with a compound to be tested, and then returned to the feeding cage. After 30 minutes, it was put into a cage for measurement, and the kinetic momentum of just the compound to be tested was measured. Further, after 30 minutes, the animal was taken out, and intraperitoneally administered with a drug for increasing kinetic momentum (MAP; 1 mg/kg or MK-801; 0.3 mg/kg, all dissolved in physiological saline), and its kinetic momentum was measured for a certain time (60 minutes) using a device for measuring the kinetic momentum by means of an infrared ray sensor (CompACT AMS, Muromachi Kikai Co., Ltd.). Also, the test was carried out under non-fasting.
The 60 minutes of measurements was classified into three groups: a first half 30 minutes, a second half 30 minutes, and a total 60 minutes. For a normal mouse (a mouse administered with physiological saline) and a mouse administered with the drug for increasing kinetic momentum, a Student's T test was used for evaluation in each interval. For the group administered with the compound to be tested, a solvent (vehicle) group and a Dunnett's T test were carried out and evaluated. For the evaluation, in case where there was a significant (P<0.05) difference for the total 60 minutes, it was considered to be effective.

[2] = dose 0.01 mg/kg, total 60 minutes, P<0.05

Structure (SMILES)	Ki (human 5-HT5A receptor) [nM]	inhibition of MK-801-induced overactivity ([1]; dose 0.1 mg/kg)	inhibition of MK-801-induced overactivity [1, 2]
CC(C)n1c2ccccc2c2ccc(C(=O)N=C(N)N)cc21 [Example 1, N-(diaminomethylene)-9-isopropyl-9H-carbazole-2-carboxamide]	0.69	–	–
NC(N)=NC(=O)c1ccc2c(c1)[nH]c1ccccc12 [Example 2, N-(diaminomethylene)-9H-carbazole-2-carboxamide]	2.8	–	–
NC(N)=NC(=O)c1cc(F)c2c3ccccc3n(C3CCOCC3)c2c1 [Example 11, N-(diaminomethylene)-4-fluoro-9-(tetrahydro-2H-pyran-4-yl)-9H-carbazole-2-carboxamide hydrochloride]	≤ 50	–	–
NC(N)=NC(=O)c1ccc2c3ccccc3n(C3CCCCC3)c2c1 [Example 24]	≤ 50	significantly inhibited	–
CC(C)C(=O)n1c2ccccc2c2ccc(C(=O)N=C(N)N)cc21 [Example 27]	0.66	–	–
CC(C)S(=O)(=O)n1c2ccccc2c2ccc(C(=O)N=C(N)N)cc21 [Example 28]	4.5	–	–
NC(N)=NC(=O)c1ccc2c3ccccc3n(-c3ccccn3)c2c1 [Example 102]	5.3	–	–
NC(N)=NC(=O)c1ccc2c3ccccc3n(Cc3ccc(F)s3)c2c1 [Example 116]	≤ 50	–	–
NC(N)=NC(=O)c1ccc2c3ccccc3n(C3CCC(F)(F)CC3)c2c1 [Example 129]	≤ 50	significantly inhibited	–
Cc1cc(C(=O)N=C(N)N)cc2c1c1c(F)cccc1n2C1CCOCC1 [Example 138]	≤ 50	–	significantly inhibited
NC(N)=NC(=O)c1ccc2c3c(F)ccc(F)c3n(C3CCOCC3)c2c1 [Example 140]	≤ 50	–	–
Cc1cc(Cn2c3ccccc3c3ccc(C(=O)N=C(N)N)cc32)no1 [Example 141]	≤ 50	–	–
Cc1cccc2c1c1c(F)cc(C(=O)N=C(N)N)cc1n2C1CCOCC1 [Example 145]	≤ 50	–	–
CSc1cccc2c1c1ccc(C(=O)N=C(N)N)cc1n2C1CCOCC1 [Example 147]	≤ 50	–	–
CO[C@H]1CC[C@@H](n2c3ccccc3c3ccc(C(=O)N=C(N)N)cc32)CC1 [Example 148]	≤ 50	–	–
CC(C)n1c2cc(C(=O)N=C(N)N)ccc2c2c(O)cccc21 [Example 152]	≤ 50	–	–
NC(N)=NC(=O)c1ccc2c3ccccc3n(C(CF)CF)c2c1 [Example 160]	≤ 50	–	–
NC(N)=NC(=O)c1ccc2c3ccccc3n([C@@H]3CCNC3)c2c1 [Example 175]	≤ 50	–	–
Cc1ccsc1Cn1c2ccccc2c2ccc(C(=O)N=C(N)N)cc21 [Example 177]	≤ 50	–	–
COCCN/C(N)=N/C(=O)c1ccc2c3ccccc3n(Cc3cccs3)c2c1 [Example 210]	≤ 50	–	–
NC(N)=NC(=O)C1CCc2c(n(-c3ccccc3)c3ccccc23)C1 (stereo not drawn) [Example 220]	≤ 50	–	–

Second part, led by results:

Ki (human 5-HT5A receptor) [nM]	Structure (SMILES)	inhibition of MK-801-induced overactivity ([1]; dose 0.1 mg/kg)	inhibition of MK-801-induced overactivity [1, 2]
≤ 50	NC(N)=NC(=O)c1ccc2c3ccccc3n(C3CCC3)c2c1 [Example 22]	significantly inhibited	–
8.3	NC(N)=NC(=O)c1ccc2c3ccccc3n(Cc3ccccc3)c2c1 [Example 37]	–	significantly inhibited
≤ 50	NC(N)=NC(=O)c1ccc2c3ccc(F)cc3n(C3CCOCC3)c2c1 [Example 114]	–	–
≤ 50	NC(N)=NC(=O)c1ccc2c3c(Cl)cccc3n(C3CCOCC3)c2c1 [Example 115]	–	–
2.2	CN/C(N)=N/C(=O)c1ccc2c3ccccc3n(C3CCOCC3)c2c1 [Example 120]	–	–
≤ 50	N/C(=N/C(=O)c1ccc2c3ccccc3n(C3CCOCC3)c2c1)NCCO [Example 126]	–	–
≤ 50	NC(N)=NC(=O)c1ccc2c3ccccc3n([C@H]3CC[C@@H](F)CC3)c2c1 [Example 143]	–	–
≤ 50	NC(N)=NC(=O)c1ccc2c3ccccc3n(C3CCOCC3)c2c1 [Example 144]	–	–
≤ 50	CC(C)N/C(N)=N\C(=O)c1ccc2c3ccccc3n(C3CCOCC3)c2c1 [Example 149]	–	–
1.6	N/C(=N\C(=O)c1ccc2c3ccccc3n(C3CCOCC3)c2c1)NCc1ccccc1 [Example 159]	–	–
≤ 50	COCCCN/C(N)=N/C(=O)c1ccc2c3ccccc3n(C3CCOCC3)c2c1 [Example 162]	–	–
≤ 50	N/C(=N\C(=O)c1ccc2c3ccccc3n(C3CCOCC3)c2c1)NC1CC1 [Example 164]	–	–
≤ 50	N/C(=N\C(=O)c1ccc2c3ccccc3n(C3CCOCC3)c2c1)NCc1ccco1 [Example 179]	–	–
≤ 50	N/C(=N\C(=O)c1ccc2c3ccccc3n(C3CCOCC3)c2c1)NCc1cccs1 [Example 180]	–	–
≤ 50	N/C(=N\C(=O)c1ccc2c3ccccc3n(C3CCOCC3)c2c1)Nc1ccccc1 [Example 181]	–	–
≤ 50	N/C(=N\C(=O)c1ccc2c3ccccc3n(C3CCOCC3)c2c1)NC1CCOCC1 [Example 182]	–	–
≤ 50	N/C(=N\C(=O)c1ccc2c3ccccc3n(C3CCOCC3)c2c1)NCC1COCCO1 (stereo not drawn) [Example 186]	–	–
≤ 50	N/C(=N\C(=O)c1ccc2c3ccccc3n(C3CCOCC3)c2c1)NC[C@@H]1CCCO1 [Example 187]	–	–
≤ 50	N/C(=N\C(=O)c1ccc2c3ccccc3n(C3CCOCC3)c2c1)NC[C@H]1CCCO1 [Example 188]	–	–
≤ 50	N#CCN1CCC(n2c3ccccc3c3ccc(C(=O)N=C(N)N)cc32)CC1 [Example 191]	–	–
≤ 50	COc1ccc(CN/C(N)=N/C(=O)c2ccc3c4ccccc4n(C4CCOCC4)c3c2)cc1 [Example 193]	–	–
≤ 50	COc1ccccc1CN/C(N)=N/C(=O)c1ccc2c3ccccc3n(C3CCOCC3)c2c1 [Example 195]	–	–
≤ 50	N/C(=N\C(=O)c1ccc2c3ccccc3n(C3CCOCC3)c2c1)NCCc1ccccc1 [Example 196]	–	–
≤ 50	NC(N)=NC(=O)c1ccc2c3ccccc3n(C3CCN(c4ccccc4)CC3)c2c1 [Example 198]	–	–
≤ 50	N/C(=N\C(=O)c1ccc2c3ccccc3n(C3CCOCC3)c2c1)NCC1CCCCC1 [Example 204]	–	–
≤ 50	N/C(=N\C(=O)c1ccc2c3ccccc3n(C3CCOCC3)c2c1)NCC1CCCC1 [Example 205]	–	–
≤ 50	N/C(=N\C(=O)c1ccc2c3ccccc3n(C3CCOCC3)c2c1)NCC1CCOCC1 [Example 206]	–	–
≤ 50	COc1cccc(OC)c1CNC(N)=NC(=O)c1ccc2c3ccccc3n(C3CCOCC3)c2c1 [Example 212]	–	–
